Our source for the spontaneous mutation frequency values is article PMC8595825 (Journal of medicinal chemistry, 2021).

The experiment relates to M. tuberculosis H37Rv. The format is cell-based, Mycobacterium tuberculosis H37Rv. The conditions noted are these: 1× to 8× MIC90, 8 weeks, 3 × 10^8 cells.

Take `CCCCCCCCn1c2c([n+](CCCC)c1C)C(=O)c1ccccc1C2=O.[Br-]` [compound 32]: the spontaneous mutation frequency is recorded as < 3 × 10^−9 /CFU.

Regarding `CCCCCCCn1c2c([n+](CCCCC)c1C)C(=O)c1ccccc1C2=O.[Br-]` [compound 48], the spontaneous mutation frequency was < 3 × 10^−9 /CFU.
